For one data set, the target named is T1, OAT4 (Homo sapiens, UniProt Q9NSA0).
T1 sequence (Q9NSA0 with tags, fused parts or gaps): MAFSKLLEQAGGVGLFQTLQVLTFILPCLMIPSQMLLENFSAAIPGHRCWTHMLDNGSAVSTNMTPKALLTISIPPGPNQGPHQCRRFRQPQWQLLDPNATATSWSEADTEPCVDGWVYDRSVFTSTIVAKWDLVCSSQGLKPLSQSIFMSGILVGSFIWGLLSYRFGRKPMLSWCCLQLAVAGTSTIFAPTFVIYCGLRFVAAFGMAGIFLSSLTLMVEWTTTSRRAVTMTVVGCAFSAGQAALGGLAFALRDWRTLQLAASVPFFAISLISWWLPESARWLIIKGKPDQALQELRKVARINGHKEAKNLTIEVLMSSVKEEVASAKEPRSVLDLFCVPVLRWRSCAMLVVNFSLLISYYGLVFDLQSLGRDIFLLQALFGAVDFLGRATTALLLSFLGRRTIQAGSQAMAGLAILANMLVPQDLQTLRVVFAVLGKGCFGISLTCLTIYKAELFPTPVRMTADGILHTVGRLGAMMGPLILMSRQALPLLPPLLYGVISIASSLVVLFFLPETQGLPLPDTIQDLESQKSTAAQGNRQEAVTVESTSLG
As to the kind of experiment: OAT4 urate transport assay in stably transfected HEK293 cells. As to conditions: 100 μM 14C-urate, 10 min, OAT4-551G cells; mean ± SEM, three experiments; read-out: Potency (IC50) against OAT4. In kind it is cell-based.

The target in a further data set is T2, PPARγ (Homo sapiens, UniProt P37231).
T2 sequence (P37231 238-505 limits assumed): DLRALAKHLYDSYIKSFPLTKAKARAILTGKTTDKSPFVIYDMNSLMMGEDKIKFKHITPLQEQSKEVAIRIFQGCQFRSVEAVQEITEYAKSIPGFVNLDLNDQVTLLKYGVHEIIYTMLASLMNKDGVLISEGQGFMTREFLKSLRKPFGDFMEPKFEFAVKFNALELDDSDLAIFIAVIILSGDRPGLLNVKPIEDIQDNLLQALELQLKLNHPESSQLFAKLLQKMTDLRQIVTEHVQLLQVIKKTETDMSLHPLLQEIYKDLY
As to the kind of experiment: Human PPARγ luciferase reporter assay. In kind it is cell-based. Particulars: reporter cells, 24 hours. The method, then:
This assay was performed using nonhuman mammalian cells engineered to provide a PPARγ-responsive luciferase reporter gene and constitutive, high levels of PPARγ (Indigo Biosciences catalog number IB00101). Cells were incubated with compounds for 24 hours, and then luciferase activity was measured using a luminometer. Agonist activity was reported as fold activation over a vehicle control. A positive control agonist, rosiglitazone, was included in each batch run to verify cell integrity.
(A reporter such as luciferase makes a cellular process visible.)

The conditions of data set [1]: cited from earlier work.
A further data set deals with T3, GLUT9 (SLC2A9v2/GLUT9ΔN) (Homo sapiens, UniProt Q9NRM0).
T3 construct: expressed in transfected cells
T3 sequence (Q9NRM0 1-511 isoform Q9NRM0-2): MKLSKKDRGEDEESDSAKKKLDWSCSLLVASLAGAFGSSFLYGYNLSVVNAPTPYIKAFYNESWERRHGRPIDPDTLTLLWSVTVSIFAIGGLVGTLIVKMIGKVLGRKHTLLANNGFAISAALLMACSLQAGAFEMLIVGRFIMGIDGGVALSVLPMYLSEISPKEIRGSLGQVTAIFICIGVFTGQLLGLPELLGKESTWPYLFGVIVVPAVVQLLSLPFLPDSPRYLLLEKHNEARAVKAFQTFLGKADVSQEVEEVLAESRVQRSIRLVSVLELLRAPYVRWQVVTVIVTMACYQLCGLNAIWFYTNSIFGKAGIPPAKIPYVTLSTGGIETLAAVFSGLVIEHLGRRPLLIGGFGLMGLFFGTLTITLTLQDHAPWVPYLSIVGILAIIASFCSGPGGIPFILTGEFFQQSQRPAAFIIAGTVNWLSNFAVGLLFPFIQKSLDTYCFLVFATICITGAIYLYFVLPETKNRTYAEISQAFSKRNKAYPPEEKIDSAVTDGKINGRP
As to the kind of experiment: GLUT9 urate transport in cRNA-injected oocytes. The class given is cell-based. The method, then: For GLUT9, SLC2A9v2/GLUT9ΔN in pCMV6/neo was linearized with XmaI and NotI and cRNA transcribed using the mMessage mMachine T7 kit (Ambion). Oocytes were injected with either water or 25 ng cRNA and incubated for 3 to 5 days in ND96 buffer. For each point, 10 oocytes were incubated with 100 μM ^14C-uric acid in ND96 buffer with and without test compounds at room temperature for 60 minutes. The oocytes were then washed three to four times in ice-cold ND96 buffer and lysed prior to scintillation counting.

The next data set relates to HepG2 cells. As to the kind of experiment: Mitochondrial toxicity assay (JC-1 mitochondrial membrane potential). The class given is cell-based, human. The method, then:
HepG2 cells were counted via hemocytometer and diluted into equal volumes of serum-free Opti-MEM (Life Technologies) and JC-1 Staining Solution (Sigma catalog number CS0390) at 300,000 cells/mL in the presence of 2.5 μg/mL JC-1. Cells were incubated at 37 °C and 5 % CO2 for 20 minutes, rinsed once with Hank's Balanced Salt Solution, and resuspended to the same concentration in serum-free Opti-MEM. Cells were then seeded into 96-well black-sided clear-bottom tissue culture plates at 30,000 cells/100 μL/well. Three replicates per experimental condition group were used. Compound was added with the final dimethyl sulfoxide (DMSO) concentration at 0.5 %. After 2 hours at 37 °C and 5 % CO2, medium was aspirated and plates were read on a Gemini EM spectrofluorometer (Molecular Devices). Fluorescence of JC-1 monomers was monitored by excitation at 490 nm and emission at 530 nm (green) and of aggregates by excitation at 525 nm and emission at 590 nm (red). The ratio of J-aggregates to monomers was calculated, with a lower ratio indicating increased cell toxicity. The percent change in mitochondrial membrane potential (Ψm) was calculated as follows: […]

Entries after “also recorded” stand apart in the source; their conditions may differ.

Experimental for OAT4: Stably transfected HEK293-OAT4-551G cells were used for OAT4 transport activity assays, which were grown for several weeks in media (DMEM with 10 % fetal bovine serum and 1 mM sodium pyruvate) containing 500 μg/mL geneticin sulfate. An isolated clone with high OAT4 activity was selected for activity assays. One day prior to the assay, cells were plated at 200,000 cells/well into each well of white, clear bottom poly-D-lysine-coated assay plates (BD Biosciences).
The cells were assayed on the following day. […] The free urate was removed by aspiration and the cells rinsed three times in 150 μL wash buffer. The cells were then subjected to liquid scintillation counting to measure transported urate. […] Each point represents the mean and standard error of the mean (SEM) from triplicates.

For `CCc1oc2ccccc2c1C(=O)c1cc(Br)c(O)c(Br)c1` [Benzbromarone], the IC50 at OAT4 was 3.19 ± 1.04 µM; on GLUT9 (SLC2A9v2/GLUT9ΔN) (100 μM 14C-uric acid, 60 min, read-out: Potency against GLUT9) it was ~100 µM. Further, the PPARγ activation entry at PPARγ (at 30 μM) was “strongly activated”. Further, the Estimated plasma concentration in data set [1] was 0.016 to 0.16 µM. The Urinary excretion in data set [1] is given as 6%. Besides, at GLUT9 (SLC2A9v2/GLUT9ΔN) (compound at up to 100 μM), the “Effect on GLUT9 urate transport” value was “only weak activity; also recorded: inhibited”. For the same compound, the “Lowest concentration reducing mitochondrial membrane potential” value with HepG2 cells (HepG2, 2 hours) stood at 0.4 µM. The EC50 with HepG2 cells (Homo sapiens, HepG2, 2 hours, read-out: Half maximal effective concentration for reduction of mitochondrial membrane potential) was found to be 1360 nM.
For `CCCN(CCC)S(=O)(=O)c1ccc(C(=O)O)cc1` [Probenecid], the results for the PPARγ activation entry on PPARγ (at 300 μM) and at PPARγ (up to 100 μM) were “slight PPARγ activation” and “no activation”, respectively. Moreover, the Mitochondrial toxicity entry in the data set on HepG2 cells (HepG2, up to 300 μM) is “no mitochondrial toxicity”.

The values are drawn from article PMC5048659 (Arthritis Research & Therapy, 2016).
